The NIST ThermoML archive (doi:10.1021/acs.jced.5b00931)
Numbers after ± are expanded uncertainties.

CCCC[N+]1(C)CCCCC1.O=S(=O)([O-])C(F)(F)F [1-butyl-1-methylpiperidinium trifluoromethanesulfonate]
101.33 kPa, Liquid
Conditions | mass density, Vibrating tube method [kg/m3] | viscosity, Falling or rolling sphere viscometry [mPa·s]
333.15 K | 1216.8 ± 2 | 107 ± 11
338.15 K | 1213.3 ± 2 | 84.6 ± 8.6
343.15 K | 1209.8 ± 2 | 67.8 ± 6.8
348.15 K | 1206.4 ± 2 | 55.2 ± 5.5
353.15 K | 1202.9 ± 2 | 45.6 ± 4.6
358.15 K | 1199.5 ± 2 | 38 ± 3.8
363.13 K | 1196.1 ± 2 | –
363.15 K | – | 32 ± 3.2

CCCC[N+]1(C)CCCC1.O=S(=O)([O-])C(F)(F)F [1-butyl-1-methylpyrrolidinium trifluoromethanesulfonate]
101.33 kPa, Liquid
Conditions | mass density, Vibrating tube method [kg/m3] | viscosity, Falling or rolling sphere viscometry [mPa·s]
293.15 K | 1255.7 ± 2 | 217 ± 24
298.15 K | 1252 ± 2 | 164 ± 18
303.15 K | 1248.3 ± 2 | 128 ± 13
308.15 K | 1244.7 ± 2 | 101 ± 10
313.15 K | 1241 ± 2 | 80.7 ± 8.2
318.15 K | 1237.4 ± 2 | 65.7 ± 6.6
323.15 K | 1233.8 ± 2 | 54.3 ± 5.4
328.15 K | 1230.2 ± 2 | 42.4 ± 4.3
333.15 K | 1226.7 ± 2 | 35.7 ± 3.6
338.15 K | 1223.1 ± 2 | 30.4 ± 3.1
343.15 K | 1219.6 ± 2 | 26.1 ± 2.6
348.15 K | 1216.1 ± 2 | 22.7 ± 2.3
353.15 K | 1212.6 ± 2 | 19.8 ± 2
358.15 K | 1209 ± 2 | 17.4 ± 1.7
363.13 K | 1205.5 ± 2 | –
363.15 K | – | 15.5 ± 1.6

CCCC[n+]1cccc(C)c1.O=S(=O)([O-])C(F)(F)F [1-butyl-3-methylpyridinium trifluoromethanesulfonate]
101.33 kPa, Liquid
Conditions | mass density, Vibrating tube method [kg/m3] | viscosity, Falling or rolling sphere viscometry [mPa·s]
293.15 K | 1279 ± 2 | 165 ± 18
298.15 K | 1275.2 ± 2 | 126 ± 13
303.15 K | 1271.4 ± 2 | 95.7 ± 9.8
308.15 K | 1267.6 ± 2 | 75.9 ± 7.7
313.15 K | 1263.8 ± 2 | 60.2 ± 6
318.15 K | 1260 ± 2 | 45.8 ± 4.6
323.15 K | 1256.2 ± 2 | 37.6 ± 3.8
328.15 K | 1252.5 ± 2 | 31.4 ± 3.2
333.15 K | 1248.7 ± 2 | 26.3 ± 2.6
338.15 K | 1245 ± 2 | 22.6 ± 2.3
343.15 K | 1241.2 ± 2 | 19.4 ± 1.9
348.15 K | 1237.5 ± 2 | 16.9 ± 1.7
353.15 K | 1233.8 ± 2 | 14.9 ± 1.5
358.15 K | 1230.1 ± 2 | 13.1 ± 1.3
363.13 K | 1226.5 ± 2 | –
363.15 K | – | 11.6 ± 1.2
